# Data reported in patent US10894058B2, “Method for producing solid dispersion containing hardly soluble polyphenol” (KAO CORPORATION, priority 2014, dated 2021).
# Columns and labels:
# [1] = Evaluation of solubility: concentration of hardly soluble polyphenol dissolved in ion-exchanged water, quantified by HPLC; assay type: physicochemical; conditions: sample added to ion-exchanged water at 1 g/L, shaken at 25° C. for 5 minutes, filtered 0.8 μm
# Experimental: Hardly soluble polyphenols were each quantified by a gradient method using a high-performance liquid chromatograph manufactured by Hitachi, Ltd. with a column Cadenza CD-C18 (4.6 mmφ×150 mm, 3 μm) manufactured by Imtakt Corporation at a column temperature of 40° C.
# A mobile phase, solution A, was 0.05 mol/L acetic acid aqueous solution, and the other mobile phase, solution B, was acetonitrile. Flow rate was 1.0 mL/min. Gradient conditions are shown below.
# In addition, ellagic acid was quantified using the same device except that only gradient conditions were set as shown below.
# The sample injection volume was 10 μL, and quantification was carried out on the basis of an absorbance at a wavelength of 254 nm.
# A sample was added to ion-exchanged water at 1 g/L, and the resultant was shaken at 25° C. for 5 minutes. After that, the resultant was filtered with a cellulose acetate filter having a pore size of 0.8 μm, and the concentration of a hardly soluble polyphenol dissolved was measured by the above-mentioned quantification method.
# [2] = cited from earlier work
# [3] = X-ray diffraction analysis: crystallinity degree of ellagic acid; assay type: physicochemical; conditions: powder X-ray diffraction, FIG. 1 to FIG. 3
# Experimental: The crystallinity degree of the hardly soluble polyphenol may be calculated by the following method. First, diffraction intensity values determined by an X-ray diffraction method are subjected to peak separation into a crystalline diffraction line and an amorphous halo through profile fitting without considering effects of incoherent scattering, a lattice defect, and the like. Next, the crystallinity degree of a hardly soluble polyphenol is calculated by the following calculation equation (2) from the resultant integrated intensities of the respective peaks: Crystallinity degree (%) of hardly soluble polyphenol=[ΣIα/(ΣIα+ΣIam)]×100 (2) where ΣIα represents a sum of integrated intensities of respective peaks in a crystalline diffraction line, and ΣIam represents a sum of integrated intensities of respective peaks in a diffraction line of an amorphous part.
# An X-ray diffraction intensity was measured using “Mini Flex II” manufactured by Rigaku Corporation under the conditions of: an X-ray source of Cu/Kα-radiation; a tube voltage of 30 kV; a tube current of 15 mA; a measurement range of from 5° to 40° in terms of a diffraction angle; and an X-ray scan speed of 10°/min. A sample for measurement was prepared by compressing a pellet having an area of 400 mm^2 and a thickness of 0.5 mm.
compound,measurement,setting,value
"O=C1C[C@@H](c2ccc(O)cc2)Oc2cc(O)cc(O)c21 [Comparative Example 12, Naringenin]",Amount of naringenin dissolved,[1],0.008 g/L
"COc1ccc(-c2cc(=O)c3c(OC)c(OC)c(OC)c(OC)c3o2)cc1OC [Comparative Example 8, Nobiletin]",Amount of nobiletin dissolved,[1],0.007 g/L
"Oc1ccc(C=Cc2cc(O)cc(O)c2)cc1 [Comparative Example 11, Resveratrol]",Amount of resveratrol dissolved,[1],0.03 g/L
"O=c1oc2c(O)c(O)cc3c(=O)oc4c(O)c(O)cc1c4c23 [Comparative Example 1, Ellagic acid]",solubility in water (25° C.),[2],5 µg/mL
same,Amount of ellagic acid dissolved,[1],0.0053 g/L
same,crystallinity degree of ellagic acid,[3],87%
"c1cc2c(cc1[C@H]1OC[C@H]3[C@@H]1CO[C@@H]3c1ccc3c(c1)OCO3)OCO2 [Comparative Example 9, Sesamin]",Amount of sesamin dissolved,[1],0.0001 g/L
"COc1cc(/C=C/C(=O)CC(=O)/C=C/c2ccc(O)c(OC)c2)ccc1O [Comparative Example 7, Curcumin]",Amount of curcumin dissolved,[1],0.001 g/L
"O.O.O=c1c(O)c(-c2ccc(O)c(O)c2)oc2cc(O)cc(O)c12 [Comparative Example 5, Quercetin dihydrate]",Amount of quercetin dissolved,[1],0.005 g/L
